Reference: US10881698B2, “Diagnosis and treatment for respiratory tract diseases” (THE TRUSTEES OF THE UNIVERSITY OF PENNSYLVANIA, priority 2012, dated 2021)
Where a chain is given by its changes, count along the chain named. Where “and” joins values, the source holds several entries; their conditions need not be identical. Equal values may be shown once. Read-outs that look alike come from different tables or passages of the source.

Tests used:
Pseudomonas aeruginosa [1] = system: Pseudomonas aeruginosa
T2R38 [2] = assay: DAF-FM imaging of NO production in human sinonasal ALI cultures; format: cell-based; settings: for DAF-FM fluorescence increase: 5 min, PAV/AVI
T2R38 [3] = assay: Fluo-4 Ca2+ imaging in primary human sinonasal ALI cultures; format: cell-based
T2R38 [4] = target: T1, T2R38 (Homo sapiens, UniProt P59533, A49P/I296V); assay: DAF-FM imaging of NO production in human sinonasal ALI cultures; format: cell-based; settings: for DAF-FM fluorescence increase: 5 min, PAV/PAV
T1 construct: T2R38 is expressed in human upper airway epithelium; endogenous in cells; host or cells: primary human sinonasal epithelial cells, air-liquid interface cultures from surgical patients
T1 sequence (P59533 1-333 A49P/I296V): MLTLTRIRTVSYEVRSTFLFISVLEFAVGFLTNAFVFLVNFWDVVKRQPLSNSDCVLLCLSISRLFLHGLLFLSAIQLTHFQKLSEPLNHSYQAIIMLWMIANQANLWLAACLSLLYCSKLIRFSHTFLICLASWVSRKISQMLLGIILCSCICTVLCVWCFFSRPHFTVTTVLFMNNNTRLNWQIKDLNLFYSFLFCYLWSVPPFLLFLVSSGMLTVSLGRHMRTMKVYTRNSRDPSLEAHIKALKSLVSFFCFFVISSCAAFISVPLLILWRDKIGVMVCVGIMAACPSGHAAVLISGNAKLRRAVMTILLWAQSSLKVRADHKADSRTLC

T2R38 [5] = target: T2, T2R38 (Homo sapiens, UniProt P59533, A262V); assay: as above; format: cell-based; settings: for DAF-FM fluorescence increase: 5 min, AVI/AVI
T2 construct: T2R38 is expressed in human upper airway epithelium; endogenous in cells; host or cells: primary human sinonasal epithelial cells, air-liquid interface cultures from surgical patients
T2 sequence (P59533 1-333 A262V): T1 sequence (P59533 1-333 A49P/I296V) with P49A, A262V, V296I

sinonasal ALI cultures [6] = assay: Mucociliary transport velocity of fluorescent microspheres on sinonasal ALI cultures; format: cell-based, human
AVI-TAS2R38 = target: T3, AVI-TAS2R38 (Homo sapiens, UniProt P59533, A262V); assay: Fluo-4 calcium mobilization in HEK293 cells expressing hTAS2R38 (AVI) and Gα16gustducin44; format: cell-based; settings: AVI variant
T3 construct: first 45 amino acids of rat SSTR-3 (N); host or cells: HEK293 (peakRapid), transient transfection, pcDNA3.1(+)
T3 sequence (P59533 1-333 A262V): T1 sequence (P59533 1-333 A49P/I296V) with P49A, A262V, V296I

[7] = system: acutely dissociated sinonasal ciliated epithelial cells; assay: Ca2+ and DAF-FM responses in acutely dissociated sinonasal ciliated cells; format: cell-based, human
PAV-TAS2R38 = target: T4, PAV-TAS2R38 (Homo sapiens, UniProt P59533, A49P/I296V); assay: Fluo-4 calcium mobilization in HEK293 cells expressing hTAS2R38 (PAV) and Gα16gustducin44; format: cell-based; settings: PAV variant
T4 construct: first 45 amino acids of rat SSTR-3 (N); host or cells: HEK293 (peakRapid), transient transfection, pcDNA3.1(+)
T4 sequence (P59533 1-333 A49P/I296V): T1 sequence (P59533 1-333 A49P/I296V)

T2R38 [8] = target: T1, T2R38; assay: Fluo-4 Ca2+ imaging in primary human sinonasal ALI cultures; format: cell-based; settings: 200 μM C4HSL; PAV/PAV
T2R38 [9] = target: T2, T2R38; assay: as above; format: cell-based; settings: 200 μM C4HSL; AVI/AVI
sinonasal ALI cultures [10] = format: cell-based, human
beta-defensin 2 = assay: Beta-defensin 2 secretion by sinonasal cultures; format: cell-based, human; settings: denatonium- or absinthin-stimulated cultures
Pseudomonas aeruginosa [11] = assay: Kill assay with ASL from stimulated sinonasal ALI cultures (CFU plating); format: cell-based; settings: U73122 20 μM
nasal epithelial cells = assay: Fluo-4 calcium signaling with denatonium in nasal epithelial cells (sinonasal ALI cultures); format: cell-based, human; settings: non-T2R38 bitter agonists

Compound: CC1(C)N([O])C(c2ccc(C(=O)O)cc2)=[N+]([O-])C1(C)C [cPTIO]
- % green (viable) PAO1 (Pseudomonas aeruginosa [1]): 93±2%

Compound: colistin sulfate
- % green (viable) PAO1 (Pseudomonas aeruginosa [1]): 4±2%

Compound: C[C@H](CCC(=O)O)C[C@H](C)C[C@H](C)C(=O)/C=C(\O)[C@H](C)C[C@H](C)C/C=C/[C@@H](C)[C@@H](O)[C@@H](C)[C@@H](O)C[C@@H]1CC[C@@](C)([C@H]2CC[C@@](C)([C@@H](C)O)O2)O1 [ionomycin]
- DAF-FM responses between the genotypes (control stimuli) (T2R38 [2]): did not yield differential DAF-FM responses between the genotypes

Compound: sodium thiocyanate [NaSCN]
- F/Fo after stimulation with 5 mM NaSCN (T2R38 [3]; +L-NAME (50 μM)): 1.24±0.07
- F/Fo after stimulation with 5 mM NaSCN (T2R38 [3]; control (no L-NAME)): 1.33±0.08
- DAF-FM fluorescence increase after 5 min NaSCN (T2R38 [4]): 202±38 units
- DAF-FM fluorescence increase after 5 min NaSCN (T2R38 [5]): 61±23 units

Compound: CCCc1cc(=O)[nH]c(=S)[nH]1 [PROP, 6-n-propylthiouracil]
- Intracellular DAF-FM fluorescence (NO production) (T2R38 [4]; apical application, PAV/PAV (taster) cells): stimulated an increase in intracellular DAF-FM fluorescence

Compound: CCCC(=O)N[C@H]1CCOC1=O [C4HSL, N-butyryl-L-homoserine lactone]
- Increase in velocity (sinonasal ALI cultures [6]; 0.1 μM, PAV/PAV): 1.07±0.02
- Increase in velocity (sinonasal ALI cultures [6]; 1 μM, PAV/PAV): 1.12±0.03
- Increase in velocity (sinonasal ALI cultures [6]; 10 μM, PAV/PAV): 1.21±0.04
- Increase in velocity (sinonasal ALI cultures [6]; 100 μM, AVI/AVI): 1.12±0.03
- Increase in velocity (sinonasal ALI cultures [6]; 100 μM, PAV/PAV): 1.47±0.07
- Concentration required to stimulate a significant increase in mucociliary transport (sinonasal ALI cultures [6]; PAV/PAV cultures): 10 µM
- Peak Fluo-4 fluorescence (ΔF/F) (AVI-TAS2R38; 200 μM): 0.3±0.4%
- Ca2+ responses in acutely dissociated sinonasal ciliated cells [7]: occurred
- Peak Fluo-4 fluorescence (ΔF/F) (PAV-TAS2R38; 200 μM): 61±2%
- Fluo-4 fluorescence after 5 min C4HSL (T2R38 [8]): 1.29±0.03
- Fluo-4 fluorescence after 5 min C4HSL (T2R38 [3]; 200 μM C4HSL, PAV/AVI): 1.14±0.04
- Fluo-4 fluorescence after 5 min C4HSL (T2R38 [9]): 1.10±0.04
- Peak CBF with C4HSL (sinonasal ALI cultures [10]): 1.17±0.02 and 1.02±0.02
- DAF-FM fluorescence increase (T2R38 [4]; 10 μM): 132±14
- DAF-FM fluorescence increase (T2R38 [4]; 100 μM): 230±30
- DAF-FM fluorescence increase (T2R38 [2]; 10 μM): 68±6
- DAF-FM fluorescence increase (T2R38 [2]; 100 μM): 130±17
- DAF-FM fluorescence increase (T2R38 [5]; 10 μM): 50±2
- DAF-FM fluorescence increase (T2R38 [5]; 100 μM): 69±8

Compound: OCc1ccccc1O[C@@H]1O[C@H](CO)[C@@H](O)[C@H](O)[C@H]1O [salicin]
- Peak Fluo-4 fluorescence (ΔF/F) (AVI-TAS2R38; 10 mM): 3±1%
- Peak Fluo-4 fluorescence (ΔF/F) (PAV-TAS2R38; 10 mM): 1.4±0.3%

Compound: CC(=O)NC(C(=O)O)C(C)(C)SN=O (racemic) [SNAP, S-Nitroso-N-Acetyl-D,L-Penicillamine]
- DAF-FM responses between the genotypes (control stimuli) (T2R38 [2]; SNAP 100 μM, ionomycin): did not yield differential DAF-FM responses between the genotypes

Compound: COc1ccc2c(c1)CC[C@@H]1[C@@H]2CC[C@]2(C)[C@@H](NCCCCCCN3C(=O)C=CC3=O)CC[C@@H]12 [U73122]
- Effect on beta-defensin secretion (beta-defensin 2): may be blocked
- Effect on C4HSL-induced NO production in taster cultures (T2R38 [4]; C4HSL 200 μM, U73122 5 μM, 20 min pre-incubation): blocked
- Effect on denatonium-induced antimicrobial response (Pseudomonas aeruginosa [11]): inhibited

Compound: CC(C)[C@]12CC(=O)[C@H](C)[C@H]1C2 [thujone]
- NO production with non-T2R38 bitter ligands (T2R38 [4]): did not stimulate NO production
- Ca2+ responses in sinonasal ALI cultures (nasal epithelial cells): not
